Laboratory results as given in article PMC7241120 (2020).

System: Pu19m2 (DNA, G4) AAGGGAGGGCGGCGGGACA
Assay: thermal melting
Conditions: 50 mM K+; complex ~60 °C, free unimolecular vG4 ~45 °C

Nc1nc2c(ncn2[C@H]2C[C@H](O)[C@@H](COP(=O)(O)O)O2)c(=O)[nH]1 was tested, and the Tm was ~ 15 °C.
